# In USRE43000E1, “Artificial riboswitch for controlling pre-mRNA splicing” (City of Hope, priority 2005, dated 2011):
# System: pAdML-Theo29AG-EGFP reporter in HEK293 cells
# Assay: GFP splicing reporter in HEK293 cells (fluorescence microscopy, RT-PCR)
# Format: cell-based
# Design: GFP expression of cells transfected with pAdML-Theo29AG-EGFP: dose or concentration left out as unconfirmed
# Description: Controlling gene expression in living cells through theophylline-RNA interaction. […] To determine if such an approach could also regulate gene expression in living cells, a splicing reporter was constructed in which the cDNA of AdML-Theo29AG pre-mRNA was inserted into the 5′ UTR of green fluorescence protein (GFP) cDNA. It was contemplated that theophylline mediated inhibition of AdML-Theo29AG splicing will prevent the export of GFP mRNA which will be mirrored by the lack of GFP expression. The reporter plasmid was constructed by standard molecular cloning approach. In brief, a PCR amplified DNA fragment containing the entire AdML-Theo29AG sequence was cloned into the EcoRI/Sal I digested expression vector (pEGFP-N1, Invitrogen). The resulting reporter plasmid, pAdML-Theo29AG-EGFP, contains the cDNA of AdML-Theo29AG pre-mRNA fused 5′ to the GFP coding sequence.
# To examine theophylline-mediated regulation of AdML-Theo29AG splicing, HEK293 cells were transfected with pAdML-Theo29AG-EGFP reporter using polyfectin following manufacturer's instructions (Qiagen). Cells were grown and maintained in a humidified atmosphere at 37° C. under 5% CO2 in Dulbecco's Modified Eagle Medium (Cellgro) supplemented with 10% fetal bovine serum and antibiotics (100 μg/ml streptomycin and 100 U/ml penicillin). For transfection, cells (3×10^4, per well) were seeded in a 24 well plate and incubated for 24 h (50-80% confluency) at which time pAdML-Theo29AG-EGFP or pEGFP-N1 was introduced. After 10 hours of incubation, cells were treated with buffer or theophylline ([…]) and incubation was continued up to 48 hours. The GFP expression was visualized with a fluorescence microscope and cells were photographed with color CCD camera (Olympus).
# An RT-PCR assay was performed to confirm that theophylline-mediated reduction of GFP expression is due to the inhibition of AdML-Theo29AG-EGFP splicing and not the result of mRNA degradation. Total RNA was isolated (from 3×10^4 cells) using trizol reagent. In a total volume of 20 μl, 5 μg of total RNA was reverse transcribed (RT) using vector specific reverse primer (GFPR, 5′-[…]-3′) according to manufacturer's instructions (Invitrogen Kit). Next, an aliquot (2 μl) of RT product was subjected to PCR amplification in a 50 μl reaction using 2.5 units of Taq polymerase, vector specific forward (GFPF, 5′-[…]-3′) and reverse primer (GFPR, 5′-[…]-3′). The amplified product was analyzed on a 2% agarose gel. […] Unlike the untreated control, which generated ˜250 bp fragment, theophylline treated cell yielded a PCR product corresponding to the size of unspliced RNA (˜350-bp).
smiles,measurement,setting,value
Cn1c(=O)c2[nH]cnc2n(C)c1=O [theophylline],splicing of AdML-Theo29AG-EGFP pre-mRNA by RT-PCR,HEK293,repressed the splicing
same,GFP expression of cells transfected with control plasmid pEGFP-N1,"HEK293, control plasmid",virtually no effect
same,GFP expression of cells transfected with pAdML-Theo29AG-EGFP,"HEK293, theophylline, up to 48 hours",dose dependent decrease in GFP expression
same,theophylline concentration sufficient to inhibit pre-mRNA splicing (FIG. 11),living cells,0.1 to 0.5 mM
